# Data from patent US9833497B2, “Human originated EGF domain proteins and use of the same” (CHENGDU SOURCEBIO LIMITED-LIABILITY COMPANY, priority 2013, dated 2017).
# Legend:
# Format in all cases: cell-based
# [1] = tested on: E. coli DH5α; assay: Antibacterial activity: MIC and growth curve against E. coli DH5α in 96-well plate; conditions: minimal inhibitory concentration against E. coli DH5α; 96-well plate, 5×10^5 CFU/mL, 37° C., judged after 8 h
# Summary of the method: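 Log-phase DH5α (OD600 about 0.5, 37° C, 185 rpm in LB) was pelleted, resuspended in fresh LB and seeded at 5×10^5 CFU/mL with recombinant protein at 50, 25 and 12.5 μg/mL (two-fold series), in triplicate. Plates were shaken at 175 rpm, 37° C, and OD600 was read every 30 min. MIC was the lowest concentration with no growth.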
# [2] = tested on: E. coli BL21; assay: MIC against Gram-negative bacteria: E. coli BL21; conditions: 5×10^5 CFU/mL
# Summary of the method: (§1)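 Bacteria grown in LB at 37° C with shaking to McFarland 0.5, pelleted and resuspended in fresh LB, then seeded at 5×10^5 CFU/mL per well. Purified recombinant human EGF domain proteins were two-fold serially diluted in triplicate and plates shaken at 37° C, 175 rpm. MIC is the lowest protein concentration with no bacterial growth.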
# [3] = tested on: Pseudomonas aeruginosa; assay: MIC against Gram-negative bacteria: Pseudomonas aeruginosa; conditions: 5×10^5 CFU/mL
# Summary of the method: as §1
# [4] = tested on: Klebsiella pneumonia; assay: MIC against Gram-negative bacteria: Klebsiella pneumonia; conditions: 5×10^5 CFU/mL
# Summary of the method: as §1
# [5] = tested on: Enterobacter cloacae; assay: MIC against Gram-negative bacteria: Enterobacter cloacae; conditions: 5×10^5 CFU/mL
# Summary of the method: as §1
# [6] = tested on: Aeromonas hydrophila; assay: MIC against Gram-negative bacteria: Aeromonas hydrophila; conditions: 5×10^5 CFU/mL
# Summary of the method: as §1
# [7] = tested on: Citrobacter diversus; assay: MIC against Gram-negative bacteria: Citrobacter diversus; conditions: 5×10^5 CFU/mL
# Summary of the method: as §1
# [8] = tested on: Moraxella catarrhalis; assay: MIC against Gram-negative bacteria: Moraxella catarrhalis; conditions: 5×10^5 CFU/mL
# Summary of the method: as §1
# [9] = tested on: Proteus mirabilis; assay: MIC against Gram-negative bacteria: Proteus mirabilis; conditions: 5×10^5 CFU/mL
# Summary of the method: as §1
# [10] = tested on: Proteus vulgaris; assay: MIC against Gram-negative bacteria: Proteus vulgaris; conditions: 5×10^5 CFU/mL
# Summary of the method: as §1
# [11] = tested on: Serratia marcescens; assay: MIC against Gram-negative bacteria: Serratia marcescens; conditions: 5×10^5 CFU/mL
# Summary of the method: as §1
# [12] = 10 h cultivation at 37° C., two-fold serial dilution
# [13] = E. coli BL21, 10 h cultivation at 37° C.
# [14] = Pseudomonas aeruginosa, 10 h cultivation at 37° C.
# [15] = Klebsiella pneumonia, 10 h cultivation at 37° C.
# [16] = Enterobacter cloacae, 10 h cultivation at 37° C.
# [17] = Aeromonas hydrophila, 10 h cultivation at 37° C.
# [18] = Citrobacter diversus, 10 h cultivation at 37° C.
# [19] = Moraxella catarrhalis, 10 h cultivation at 37° C.
# [20] = Proteus mirabilis, 10 h cultivation at 37° C.
# [21] = Proteus vulgaris, 10 h cultivation at 37° C.
# [22] = Serratia marcescens, 10 h cultivation at 37° C.
substance,measurement,setting,value
PRT584 (CQCSHEGALSSLCEKTSGQCLCRTGAFGLRCDRCQRGQWGFPSCRP; listed as Homo sapiens),MIC,[1],50 µg/mL
same,MIC against E. coli BL21,"[2]; 96-well plate, 37° C., 10 h",50 µg/mL
same,MIC against P. aeruginosa,"[3]; 96-well plate, 37° C., 10 h",25 µg/mL
same,MIC against K. pneumonia,"[4]; 96-well plate, 37° C., 10 h",50 µg/mL
same,MIC against E. cloacae,"[5]; 96-well plate, 37° C., 10 h",25 µg/mL
same,MIC against A. hydrophila,"[6]; 96-well plate, 37° C., 10 h",50 µg/mL
same,MIC against C. diversus,"[7]; 96-well plate, 37° C., 10 h",25 µg/mL
same,MIC against M. catarrhalis,"[8]; 96-well plate, 37° C., 10 h",50 µg/mL
same,MIC against P. mirabilis,"[9]; 96-well plate, 37° C., 10 h",25 µg/mL
same,MIC against P. vulgaris,"[10]; 96-well plate, 37° C., 10 h",50 µg/mL
same,MIC against S. marcescens,"[11]; 96-well plate, 37° C., 10 h",25 µg/mL
PRT1056 (DQDDCAPVGCSMYARCISEGEDATCQCLKGFAGDGKLCS; listed as Homo sapiens),MIC,[1],50 µg/mL
same,MIC E. coli BL21,[2]; [12],25 µg/mL
same,MIC P. aeruginosa,[3]; [12],12.5 µg/mL
same,MIC K. pneumonia,[4]; [12],25 µg/mL
same,MIC E. cloacae,[5]; [12],50 µg/mL
same,MIC A. hydrophila,[6]; [12],12.5 µg/mL
same,MIC C. diversus,[7]; [12],50 µg/mL
same,MIC M. catarrhalis,[8]; [12],12.5 µg/mL
same,MIC P. mirabilis,[9]; [12],50 µg/mL
same,MIC P. vulgaris,[10]; [12],12.5 µg/mL
same,MIC S. marcescens,[11]; [12],25 µg/mL
PRT1444 (HHIPCPEHYNGFCMHGKCEHSINMQEPSCRCDAGYTGQHCE; listed as Homo sapiens),MIC,[1],12.5 µg/mL
same,MIC against E. coli BL21,[2]; [13],25 µg/mL
same,MIC against P. aeruginosa,[3]; [14],50 µg/mL
same,MIC against K. pneumonia,[4]; [15],25 µg/mL
same,MIC against E. cloacae,[5]; [16],12.5 µg/mL
same,MIC against A. hydrophila,[6]; [17],25 µg/mL
same,MIC against C. diversus,[7]; [18],50 µg/mL
same,MIC against M. catarrhalis,[8]; [19],12.5 µg/mL
same,MIC against P. mirabilis,[9]; [20],25 µg/mL
same,MIC against P. vulgaris,[10]; [21],50 µg/mL
same,MIC against S. marcescens,[11]; [22],25 µg/mL
PRT1351 (TAVCQSPCLNGGKCVRPNRCHCLSSWTGHNCS; listed as Homo sapiens),MIC,[1],25 µg/mL
same,MIC against E. coli BL21,[2]; [13],25 µg/mL
same,MIC against P. aeruginosa,[3]; [14],50 µg/mL
same,MIC against K. pneumonia,[4]; [15],25 µg/mL
same,MIC against E. cloacae,[5]; [16],12.5 µg/mL
same,MIC against A. hydrophila,[6]; [17],12.5 µg/mL
same,MIC against C. diversus,[7]; [18],12.5 µg/mL
same,MIC against M. catarrhalis,[8]; [19],25 µg/mL
same,MIC against P. mirabilis,[9]; [20],12.5 µg/mL
same,MIC against P. vulgaris,[10]; [21],25 µg/mL
same,MIC against S. marcescens,[11]; [22],12.5 µg/mL
PRT640 (DMDECQDPSSCIDGQCVNTEGSYNCFCTHPMVLDASE; listed as Homo sapiens),MIC,[1],12.5 µg/mL
same,MIC E. coli BL21,"[2]; 96-well plate, 37° C., 10 h",25 µg/mL
same,MIC P. aeruginosa,"[3]; 96-well plate, 37° C., 10 h",50 µg/mL
same,MIC K. pneumonia,"[4]; 96-well plate, 37° C., 10 h",12.5 µg/mL
same,MIC E. cloacae,"[5]; 96-well plate, 37° C., 10 h",25 µg/mL
same,MIC A. hydrophila,"[6]; 96-well plate, 37° C., 10 h",50 µg/mL
same,MIC C. diversus,"[7]; 96-well plate, 37° C., 10 h",12.5 µg/mL
same,MIC M. catarrhalis,"[8]; 96-well plate, 37° C., 10 h",25 µg/mL
same,MIC P. mirabilis,"[9]; 96-well plate, 37° C., 10 h",50 µg/mL
same,MIC P. vulgaris,"[10]; 96-well plate, 37° C., 10 h",12.5 µg/mL
same,MIC S. marcescens,"[11]; 96-well plate, 37° C., 10 h",25 µg/mL
PRT622 (CNCNPMGSEPVGCRSDGTCVCKPGFGGPNC; listed as Homo sapiens),MIC,[1],25 µg/mL
same,MIC E. coli BL21,"[2]; 96-well plate, 37° C., 10 h",50 µg/mL
same,MIC P. aeruginosa,"[3]; 96-well plate, 37° C., 10 h",25 µg/mL
same,MIC K. pneumonia,"[4]; 96-well plate, 37° C., 10 h",50 µg/mL
same,MIC E. cloacae,"[5]; 96-well plate, 37° C., 10 h",25 µg/mL
same,MIC A. hydrophila,"[6]; 96-well plate, 37° C., 10 h",12.5 µg/mL
same,MIC C. diversus,"[7]; 96-well plate, 37° C., 10 h",50 µg/mL
same,MIC M. catarrhalis,"[8]; 96-well plate, 37° C., 10 h",12.5 µg/mL
same,MIC P. mirabilis,"[9]; 96-well plate, 37° C., 10 h",50 µg/mL
same,MIC P. vulgaris,"[10]; 96-well plate, 37° C., 10 h",12.5 µg/mL
same,MIC S. marcescens,"[11]; 96-well plate, 37° C., 10 h",12.5 µg/mL
PRT1365 (SQLRCPNDCHSRGRCVEGKCVCEQGFKGYDCS; listed as Homo sapiens),MIC,[1],12.5 µg/mL
same,MIC against E. coli BL21,[2]; [13],100 µg/mL
same,MIC against P. aeruginosa,[3]; [14],25 µg/mL
same,MIC against K. pneumonia,[4]; [15],50 µg/mL
same,MIC against E. cloacae,[5]; [16],25 µg/mL
same,MIC against A. hydrophila,[6]; [17],12.5 µg/mL
same,MIC against C. diversus,[7]; [18],50 µg/mL
same,MIC against M. catarrhalis,[8]; [19],25 µg/mL
same,MIC against P. mirabilis,[9]; [20],12.5 µg/mL
same,MIC against P. vulgaris,[10]; [21],25 µg/mL
same,MIC against S. marcescens,[11]; [22],12.5 µg/mL
PRT1122 (DVDECLSDPCLHGGTCSDTVAGYICRCPETWGGRDCS; listed as Homo sapiens),MIC,[1],50 µg/mL
same,MIC E. coli BL21,[2]; [12],12.5 µg/mL
same,MIC P. aeruginosa,[3]; [12],50 µg/mL
same,MIC K. pneumonia,[4]; [12],12.5 µg/mL
same,MIC E. cloacae,[5]; [12],50 µg/mL
same,MIC A. hydrophila,[6]; [12],25 µg/mL
same,MIC C. diversus,[7]; [12],12.5 µg/mL
same,MIC M. catarrhalis,[8]; [12],50 µg/mL
same,MIC P. mirabilis,[9]; [12],12.5 µg/mL
same,MIC P. vulgaris,[10]; [12],50 µg/mL
same,MIC S. marcescens,[11]; [12],12.5 µg/mL
PRT1250 (FGARCDRYCQCFRGRCHPVDGTCACEPGYRGKYCR; listed as Homo sapiens),MIC,[1],12.5 µg/mL
same,MIC against E. coli BL21,"[2]; E. coli BL21, 96-well plate, 37° C., 10 h",50 µg/mL
same,MIC against P. aeruginosa,"[3]; Pseudomonas aeruginosa, 96-well plate, 37° C., 10 h",12.5 µg/mL
same,MIC against K. pneumonia,"[4]; Klebsiella pneumonia, 96-well plate, 37° C., 10 h",25 µg/mL
same,MIC against E. cloacae,"[5]; Enterobacter cloacae, 96-well plate, 37° C., 10 h",50 µg/mL
same,MIC against A. hydrophila,"[6]; Aeromonas hydrophila, 96-well plate, 37° C., 10 h",12.5 µg/mL
same,MIC against C. diversus,"[7]; Citrobacter diversus, 96-well plate, 37° C., 10 h",50 µg/mL
same,MIC against M. catarrhalis,"[8]; Moraxella catarrhalis, 96-well plate, 37° C., 10 h",12.5 µg/mL
same,MIC against P. mirabilis,"[9]; Proteus mirabilis, 96-well plate, 37° C., 10 h",25 µg/mL
same,MIC against P. vulgaris,"[10]; Proteus vulgaris, 96-well plate, 37° C., 10 h",50 µg/mL
same,MIC against S. marcescens,"[11]; Serratia marcescens, 96-well plate, 37° C., 10 h",25 µg/mL
PRT744 (GWNECASSNGHCSHLCLAVPVGGFVCGCPAHYSLNADNRTCS; listed as Homo sapiens),MIC,[1],12.5 µg/mL
same,MIC (μg/mL) E. coli BL21,[2]; [13],50 µg/mL
same,MIC (μg/mL) P. aeruginosa,"[3]; P. aeruginosa, 10 h cultivation at 37° C.",12.5 µg/mL
same,MIC (μg/mL) K. pneumonia,"[4]; K. pneumonia, 10 h cultivation at 37° C.",50 µg/mL
same,MIC (μg/mL) E. cloacae,"[5]; E. cloacae, 10 h cultivation at 37° C.",12.5 µg/mL
same,MIC (μg/mL) A. hydrophila,"[6]; A. hydrophila, 10 h cultivation at 37° C.",50 µg/mL
same,MIC (μg/mL) C. diversus,"[7]; C. diversus, 10 h cultivation at 37° C.",12.5 µg/mL
same,MIC (μg/mL) M. catarrhalis,"[8]; M. catarrhalis, 10 h cultivation at 37° C.",50 µg/mL
same,MIC (μg/mL) P. mirabilis,"[9]; P. mirabilis, 10 h cultivation at 37° C.",25 µg/mL
same,MIC (μg/mL) P. vulgaris,"[10]; P. vulgaris, 10 h cultivation at 37° C.",25 µg/mL
same,MIC (μg/mL) S. marcescens,"[11]; S. marcescens, 10 h cultivation at 37° C.",12.5 µg/mL
